Data set [1] deals with T1, Solute carrier organic anion transporter family member 1B1 (Homo sapiens, UniProt Q9Y6L6).
T1 sequence (Q9Y6L6 whole entry): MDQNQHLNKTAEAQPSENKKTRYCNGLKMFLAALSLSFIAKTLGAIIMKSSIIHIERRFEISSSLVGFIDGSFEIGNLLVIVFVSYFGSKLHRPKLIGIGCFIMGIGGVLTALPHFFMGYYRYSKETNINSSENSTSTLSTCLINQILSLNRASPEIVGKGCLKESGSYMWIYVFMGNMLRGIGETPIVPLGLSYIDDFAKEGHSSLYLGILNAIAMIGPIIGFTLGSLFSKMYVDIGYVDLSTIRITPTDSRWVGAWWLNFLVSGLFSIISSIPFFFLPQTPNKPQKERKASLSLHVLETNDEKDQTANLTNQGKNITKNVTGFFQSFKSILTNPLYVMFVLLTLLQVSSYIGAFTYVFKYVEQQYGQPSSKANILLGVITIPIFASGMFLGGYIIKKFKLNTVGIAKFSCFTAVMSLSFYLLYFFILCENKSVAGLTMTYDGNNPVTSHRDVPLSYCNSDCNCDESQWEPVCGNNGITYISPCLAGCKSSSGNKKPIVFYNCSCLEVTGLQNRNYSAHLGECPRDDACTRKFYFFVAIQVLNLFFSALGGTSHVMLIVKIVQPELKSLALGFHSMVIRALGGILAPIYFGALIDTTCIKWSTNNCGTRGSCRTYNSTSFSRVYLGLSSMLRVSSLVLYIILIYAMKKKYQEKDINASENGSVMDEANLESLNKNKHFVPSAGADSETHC
Conditions: chinese hamster, cho, 10 µM.

Data set [2] deals with T2, Solute carrier organic anion transporter family member 1B3 (Homo sapiens, UniProt Q9NPD5).
T2 sequence (Q9NPD5 whole entry): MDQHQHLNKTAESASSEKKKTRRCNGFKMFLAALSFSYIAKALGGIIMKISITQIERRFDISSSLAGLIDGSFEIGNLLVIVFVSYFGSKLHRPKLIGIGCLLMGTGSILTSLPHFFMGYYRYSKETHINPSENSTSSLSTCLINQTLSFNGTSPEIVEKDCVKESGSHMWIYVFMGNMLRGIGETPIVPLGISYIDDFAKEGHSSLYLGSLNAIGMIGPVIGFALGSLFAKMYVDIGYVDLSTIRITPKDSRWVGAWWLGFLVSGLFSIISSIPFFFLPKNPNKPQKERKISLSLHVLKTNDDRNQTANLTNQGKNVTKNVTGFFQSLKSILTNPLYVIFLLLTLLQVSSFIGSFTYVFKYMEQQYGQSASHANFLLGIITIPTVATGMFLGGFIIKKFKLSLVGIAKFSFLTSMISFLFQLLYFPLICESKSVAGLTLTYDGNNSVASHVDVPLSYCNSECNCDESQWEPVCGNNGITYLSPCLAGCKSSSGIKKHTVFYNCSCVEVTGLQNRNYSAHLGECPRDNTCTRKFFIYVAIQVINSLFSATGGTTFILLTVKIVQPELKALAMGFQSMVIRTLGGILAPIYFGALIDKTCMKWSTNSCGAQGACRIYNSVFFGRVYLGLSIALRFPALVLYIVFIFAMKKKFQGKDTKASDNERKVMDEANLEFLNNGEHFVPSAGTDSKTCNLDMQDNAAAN
As to conditions: chinese hamster, cho, 10 µM.

SMILES strings stand for the structures.

In general, residual activity refers to the signal under treatment as a percentage of the control signal. As to `C[C@]12CC[C@H](O)C[C@@H]1CC[C@@H]1[C@@H]2CC[C@]2(C)C(=O)CC[C@@H]12` [EPIANDROSTERONE], the residual activity in data set [1] came out at 55.38%; in data set [2] it was 91.34%.

Turning to `COC(=O)C(C)c1ccc(C(=O)c2cccs2)cc1` (configuration not stated) [SUPROFEN METHYL ESTER], the residual activity in data set [1] stood at 93.7%; in data set [2], 95.34%.

Consider `COc1cc2ccc(=O)oc2c(O)c1O` [FRAXETIN], for which the values for the residual activity in data set [1] and in data set [2] were 68.87% and 106.2%, respectively.

Regarding `Cc1cc(CC(=O)[O-])n(C)c1C(=O)c1ccc(Cl)cc1.O.O.[Na+]` [ZOMEPIRAC SODIUM], the residual activity in data set [1] was 132.9%; in data set [2], 118.7%.

On to `CCNc1nc(Cl)nc(NC(C)C)n1` [ATRAZINE], for which the residual activity in data set [1] was found to be 133.8%; in data set [2], 96.21%.

With `C[C@@H]1CC[C@@]2(OC1)O[C@H]1C[C@H]3[C@@H]4CC=C5C[C@@H](O)CC[C@]5(C)[C@H]4CC[C@]3(C)[C@H]1[C@@H]2C` [DISOGENIN], the residual activity came out at 85.54% in data set [1] and 85.35% in data set [2].

On to `CO[C@H]1[C@H](O)[C@H](O[C@H]2CC[C@@]3(C=O)[C@H](CC[C@@H]4[C@@H]3CC[C@]3(C)[C@@H](C5=CC(=O)OC5)CC[C@]43O)C2)O[C@@H](C)[C@@H]1O` [PERUVOSIDE], for which the residual activity turned out to be 62.43% in data set [1] and 112.7% in data set [2].

As to `CC(=O)[C@H]1CC[C@H]2[C@@H]3C[C@H](C)C4=CC(=O)CC[C@]4(C)[C@H]3[C@@H](O)C[C@]12C` [MEDRYSONE], the figures for the residual activity in data set [1] and in data set [2] were 86.36% and 90.89%, respectively.

As to `O=c1c(-c2ccccc2)coc2cc(O)cc(O)c12` [5,7-DIHYDROXYISOFLAVONE], the residual activity in data set [1] was 54.1%; in data set [2], 75.57%.

Take `C[C@](N)(Cc1ccc(O)cc1)C(=O)O` [METYROSINE]: the residual activity in data set [1] is listed as 64.38%; in data set [2], 84.41%.

Turning to `CCN(CC)CCNC(=O)c1ccc(N)cc1.Cl` [PROCAINAMIDE HYDROCHLORIDE], the residual activity in data set [1] came out at 81.68%; in data set [2] it was 104.4%.

Consider `O=C1C=CC(=O)c2c(O)cccc21` [JUGLONE], for which the residual activity in data set [1] is listed as 66.93%; in data set [2], 93.79%.

Take `COc1cc2c(cc1O)[C@@H](Cc1ccc(O)cc1)[N+](C)(C)CC2.[I-]` [MAGNOCURARINE IODIDE]: the residual activity is listed as 91.83% in data set [1] and 96.29% in data set [2].

Consider `O=C(O)/C=C/c1ccc(O)c(O)c1` [CAFFEIC ACID], for which the figures for the residual activity in data set [1] and in data set [2] were 69.6% and 94%, respectively.

`O[C@@H]1[C@@H](O)[C@@H]2OC[C@@H](O2)[C@H]1O`: the residual activity in data set [1] is reported as 105.1%; in data set [2] it was 106%.

As for `C#CCCCCCCCCCCCC(O)CC(O)CO` (configuration not stated) [AVOCADYNE], the results for the residual activity in data set [1] and in data set [2] were 96.1% and 124.3%, respectively.

With `CC(COc1ccccc1)NC(C)C(O)c1ccc(O)cc1.Cl` (configuration not stated) [ISOXSUPRINE HYDROCHLORIDE], the residual activity in data set [1] was 38.44%; in data set [2], 77.52%.

Consider `Nc1ccccc1C(=O)CC(N)C(=O)O` (configuration not stated) [KYNURENINE], for which the residual activity came out at 58.07% in data set [1] and 67.15% in data set [2].

For the compound `C[C@@H]1CCC[C@H](C)N1NC(=O)c1ccc(Cl)c(S(N)(=O)=O)c1` [CLOPAMIDE], the residual activity was 113.6% in data set [1] and 107.3% in data set [2].

Take `CC(=O)[C@@]1(O)CC[C@H]2[C@@H]3C[C@H](C)C4=CC(=O)C=C[C@]4(C)[C@@]3(F)[C@@H](O)C[C@@]21C` [FLUOROMETHOLONE]: the residual activity in data set [1] was 85.71%; in data set [2], 105.7%.

For `CC(C)NC(=N)NC(=N)Nc1ccc(Cl)cc1.Cl` [PROGUANIL HYDROCHLORIDE], the figures for the residual activity in data set [1] and in data set [2] were 77.71% and 114.8%, respectively.

Consider `CC1(C)[C@H](O)C[C@H](O)[C@]2(C)[C@H]3CC[C@@]4(C)[C@H](c5ccoc5)OC(=O)[C@H]5O[C@]54[C@]3(C)C(=O)C[C@@H]12`, for which the residual activity is 48.25% in data set [1] and 93.94% in data set [2].

`COc1cc2ccc(=O)oc2cc1O` [SCOPOLETIN]: the residual activity worked out at 87.31% in data set [1] and 99.95% in data set [2].

Consider `Cc1cccc(C(=O)O)c1O` [HYDROXYTOLUIC ACID], for which the residual activity in data set [1] is 125.2%; in data set [2], 110.2%.

As to `COc1cc2c(cc1OC)-c1c(oc3c4c(ccc3c1=O)OC(C(C)C)C4)CO2` (configuration not stated) [DEHYDRODIHYDROROTENONE], the residual activity in data set [1] is recorded as 89.82%; in data set [2], 95.69%.

Turning to `COC1C(O)C(O[C@H]2CC[C@]3(C=O)C4C(CC[C@]3(O)C2)[C@@]2(O)CC[C@H](C3=CC(=O)OC3)[C@@]2(C)C[C@H]4OC(C)=O)OC(C)C1OC(C)=O` (some centres not stated) [SARMENTOSIDE B], the figures for the residual activity in data set [1] and in data set [2] were 58.47% and 72.65%, respectively.

In the case of `COP(=O)(NC(C)=O)SC` (configuration not stated) [ACEPHATE], the figures for the residual activity in data set [1] and in data set [2] were 75.83% and 83.6%, respectively.

With `CC(C)CCC[C@@H](C)[C@H]1CC[C@H]2[C@@H]3C(=O)C=C4C[C@@H](O)CC[C@]4(C)[C@H]3CC[C@]12C` [7-OXOCHOLESTEROL], the results for the residual activity in data set [1] and in data set [2] were 96.87% and 90.78%, respectively.

As to `O=C(C1CCCCC1)N1CC(=O)N2CCc3ccccc3C2C1` (configuration not stated) [PRAZIQUANTEL], the residual activity in data set [1] came out at 162.2%; in data set [2], 125.5%.

With `C=C[C@@](C)(O)CC[C@H]1C(=C)C[C@H](OC(C)=O)[C@H]2C(C)(C)CCC[C@]12C`, the residual activity was 81.97% in data set [1] and 80.26% in data set [2].

In the case of `CCCCN1CCCCC1C(=O)Nc1c(C)cccc1C.Cl` (configuration not stated) [BUPIVACAINE HYDROCHLORIDE], the residual activity in data set [1] was 97.15%; in data set [2] it was 94.2%.

For the compound `O=C(O)/C=C\C(=O)O.c1ccc2nc(N3CCNCC3)ccc2c1` [QUIPAZINE MALEATE], the residual activity is on record as 102.6% in data set [1] and 102.9% in data set [2].

As for `CC(Cc1cccc(C(F)(F)F)c1)NCCOC(=O)c1ccccc1.Cl` (configuration not stated) [BENFLUOREX HYDROCHLORIDE], the residual activity is given as 93.54% in data set [1] and 87.71% in data set [2].

For the compound `COc1cc(OC)c2c(=O)cc(-c3ccccc3)oc2c1` [CHRYSIN DIMETHYL ETHER], the residual activity in data set [1] is on record as 112.1%; in data set [2] it was 103.1%.

On to `CC(=O)Nc1ccccc1` [ACETANILIDE], for which the residual activity amounted to 96.78% in data set [1] and 100.2% in data set [2].

Take `CS(=O)(=O)O.OC(CCN1CCCCC1)(c1ccccc1)c1ccccc1` [PRIDINOL METHANESULFONATE]: the residual activity worked out at 95.92% in data set [1] and 95.39% in data set [2].

Turning to `CSCC[C@H](NC=O)C(=O)N[C@@H](CC(C)C)C(=O)N[C@@H](Cc1ccccc1)C(=O)O`, the residual activity in data set [1] turned out to be 76.72%; in data set [2], 120.4%.

For the compound `C[C@]12C=CC(=O)C=C1CC[C@@H]1[C@@H]2[C@@H](O)C[C@@]2(C)[C@H]1CC[C@]2(O)C(=O)CO` [PREDNISOLONE], the residual activity in data set [1] is reported as 79.83%; in data set [2], 110.4%.

Consider `O=C1c2ccc(O)c(O)c2C(=O)c2c(O)ccc(O)c21` [QUINALIZARIN], for which the figures for the residual activity in data set [1] and in data set [2] were 57.07% and 75.87%, respectively.

Regarding `Cn1c(=O)c2c(ncn2CC(O)CO)n(C)c1=O` (configuration not stated) [DYPHYLLINE], the residual activity worked out at 92.75% in data set [1] and 94.34% in data set [2].

In the case of `CC(=O)OCC(=O)[C@@]1(O)CC[C@H]2[C@@H]3CCC4=CC(=O)C=C[C@]4(C)[C@H]3[C@@H](O)C[C@@]21C` [PREDNISOLONE ACETATE], the residual activity in data set [1] is 63.69%; in data set [2] it was 106.7%.

(Values after ChEMBL document CHEMBL3039007, “Structure-based identification of OATP1B1/3 inhibitors” (Mol Pharmacol, 2013).)
